Data as given in PubChem BioAssay (NCI).
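96-well plates; 48 h exposure; 5 concentrations. Endpoints by linear interpolation between flanking doses. Not reached: highest tested concentration assigned. GI50 marks 50% less growth. TGI denotes the concentration required for complete inhibition of growth.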

How the values were obtained:
Assay in all cases: NCI tumour cell line growth inhibition, 48 h
[1] = tested on: HS 578T breast
[2] = tested on: MOLT-4 leukemia
[3] = tested on: 786-0 renal
[4] = tested on: OVCAR-5 ovarian
[5] = tested on: COLO 205 colon
[6] = tested on: NCI-H460 lung
[7] = tested on: SN12C renal
[8] = tested on: UO-31 renal
[9] = tested on: SF-539 CNS
[10] = tested on: HOP-62 NSCLC
[11] = tested on: SNB-75 CNS
[12] = tested on: SK-MEL-28 melanoma
[13] = tested on: RXF 393 renal
[14] = tested on: SK-MEL-2 melanoma
[15] = tested on: MALME-3M melanoma
[16] = tested on: SF-268 CNS
[17] = tested on: MDA-MB-435
[18] = tested on: SK-OV-3 ovarian
[19] = tested on: U251 CNS
[20] = tested on: HL-60(TB) leukemia
[21] = tested on: UACC-62 melanoma
[22] = tested on: HOP-92 NSCLC
[23] = tested on: IGROV1 ovarian
[24] = tested on: K-562 leukemia
[25] = tested on: TK-10 renal
[26] = tested on: KM12 colon
[27] = tested on: EKVX NSCLC
[28] = tested on: LOX IMVI melanoma
[29] = tested on: SR leukemia
[30] = tested on: A498 renal
[31] = tested on: T-47D breast
[32] = tested on: OVCAR-4 ovarian
[33] = tested on: PC-3 prostate
[34] = tested on: OVCAR-3 ovarian
[35] = tested on: NCI-H522 lung
[36] = tested on: NCI-H23 lung
[37] = tested on: M14 melanoma
[38] = tested on: CAKI-1 renal
[39] = tested on: NCI-H226 lung
[40] = tested on: MDA-MB-231 breast
[41] = tested on: SNB-19 CNS
[42] = tested on: HCT-15 colon
[43] = tested on: NCI/ADR-RES ovarian
[44] = tested on: RPMI-8226 leukemia
[45] = tested on: CCRF-CEM leukemia
[46] = tested on: MCF7 breast
[47] = tested on: UACC-257 melanoma
[48] = tested on: SK-MEL-5 melanoma
[49] = tested on: HCT-116 colon
[50] = tested on: BT-549 breast
[51] = tested on: SW-620 colon
[52] = tested on: SF-295 CNS
[53] = tested on: MDA-MB-468 breast
[54] = tested on: OVCAR-8 ovarian
[55] = tested on: ACHN renal
[56] = tested on: A549 NSCLC
[57] = tested on: DU-145 prostate
[58] = tested on: HCC-2998 colon
[59] = tested on: HT29 colon

`CC/C(=C(\c1ccc(O)cc1)c1ccc(OCCN(C)C(=O)COCCNC(=O)Cc2ccc3c(c2)CN([C@@H]2CCC(=O)NC2=O)C3=O)cc1)c1ccccc1` gave a GI50 [1] of 0.672 µM, a TGI [1] of 11.8 µM and a GI50 [2] of 0.0517 µM. For the same compound, the TGI [2] was 1.1 µM, the GI50 [3] was 51.7 µM and the TGI [3] was greater than 100 µM. For the same compound, the GI50 [4] was greater than 57.6 µM, the TGI [4] was greater than 100 µM and the GI50 [5] was 2.11 µM. The TGI [5] was 33.3 µM, the GI50 [6] was greater than 100 µM and the TGI [6] was greater than 100 µM. For the same compound, the GI50 [7] was 2.27 µM, the TGI [7] was greater than 93 µM and the GI50 [8] was greater than 100 µM. It also gave a TGI [8] greater than 100 µM, a GI50 [9] greater than 62.6 µM and a TGI [9] greater than 100 µM. It also gave a GI50 [10] of 2.28 µM, a TGI [10] of 19.1 µM and a GI50 [11] of 0.316 µM. The TGI [11] was greater than 94.8 µM, the GI50 [12] was 21.6 µM and the TGI [12] was greater than 100 µM. The GI50 [13] was 4.19 µM, the TGI [13] was 72.8 µM and the GI50 [14] was 6.14 µM. The TGI [14] was greater than 91.8 µM, the GI50 [15] was 0.306 µM and the TGI [15] was 2.49 µM. The GI50 [16] was 5.38 µM, the TGI [16] was greater than 100 µM and the GI50 [17] was 17.8 µM. It also gave a TGI [17] greater than 100 µM, a GI50 [18] of 10.7 µM and a TGI [18] greater than 100 µM. The GI50 [19] was greater than 74.9 µM, the TGI [19] was greater than 100 µM and the GI50 [20] was 0.0309 µM. The TGI [20] was 0.659 µM, the GI50 [21] was 54.2 µM and the TGI [21] was greater than 100 µM. It also gave a GI50 [22] of 0.177 µM, a TGI [22] of 3.05 µM and a GI50 [23] of 0.433 µM. For the same compound, the TGI [23] was greater than 100 µM, the GI50 [24] was 16 µM and the TGI [24] was greater than 100 µM. For the same compound, the GI50 [25] was greater than 100 µM, the TGI [25] was greater than 100 µM and the GI50 [26] was 8.5 µM. The TGI [26] was greater than 100 µM, the GI50 [27] was greater than 47 µM and the TGI [27] was greater than 100 µM. The GI50 [28] was greater than 84.5 µM, the TGI [28] was greater than 100 µM and the GI50 [29] was 13.5 µM. For the same compound, the TGI [29] was greater than 74 µM, the GI50 [30] was 38.6 µM and the TGI [30] was greater than 100 µM. It also gave a GI50 [31] of 0.0259 µM, a TGI [31] of 4.61 µM and a GI50 [32] of 11.2 µM. For the same compound, the TGI [32] was greater than 100 µM, the GI50 [33] was 0.703 µM and the TGI [33] was greater than 100 µM. It also gave a GI50 [34] of 15.2 µM, a TGI [34] greater than 100 µM and a GI50 [35] greater than 21.6 µM. For the same compound, the TGI [35] was greater than 100 µM, the GI50 [36] was greater than 93.6 µM and the TGI [36] was greater than 100 µM. For the same compound, the GI50 [37] was 30.8 µM, the TGI [37] was greater than 100 µM and the GI50 [38] was 55.1 µM. For the same compound, the TGI [38] was greater than 100 µM, the GI50 [39] was 2.35 µM and the TGI [39] was greater than 26.7 µM. It also gave a GI50 [40] of 0.142 µM, a TGI [40] of 0.801 µM and a GI50 [41] of 1.83 µM. It also gave a TGI [41] greater than 100 µM, a GI50 [42] greater than 88.1 µM and a TGI [42] greater than 100 µM. The GI50 [43] was greater than 100 µM, the TGI [43] was greater than 100 µM and the GI50 [44] was 5.07 µM. It also gave a TGI [44] greater than 100 µM, a GI50 [45] of 0.995 µM and a GI50 [46] of 0.104 µM. It also gave a TGI [46] greater than 100 µM, a GI50 [47] greater than 100 µM and a TGI [47] greater than 100 µM. The GI50 [48] was 6.78 µM, the TGI [48] was 73.9 µM and the GI50 [49] was greater than 85.7 µM. For the same compound, the TGI [49] was greater than 100 µM, the GI50 [50] was 0.15 µM and the TGI [50] was 0.743 µM. It also gave a GI50 [51] of 1.9 µM, a TGI [51] greater than 100 µM and a GI50 [52] greater than 100 µM. For the same compound, the TGI [52] was greater than 100 µM, the GI50 [53] was 0.0374 µM and the TGI [53] was 0.266 µM. The GI50 [54] was 1.56 µM, the TGI [54] was 33.4 µM and the GI50 [55] was greater than 100 µM. The TGI [55] was greater than 100 µM, the GI50 [56] was 46.2 µM and the TGI [56] was greater than 100 µM. The GI50 [57] was greater than 100 µM, the TGI [57] was greater than 100 µM and the GI50 [58] was 1.7 µM. For the same compound, the TGI [58] was greater than 82.3 µM, the GI50 [59] was greater than 57.6 µM and the TGI [59] was greater than 100 µM.
